A melting point compilation (Tetko et al.)

melting point [°C] | SMILES
199 | O=[N+]([O-])c1cccc(-c2nnc3n2NC(c2ccc(Cl)cc2)S3)c1 (configuration not stated)
117 | CCC(C)=NNc1ccc([N+](=O)[O-])cc1[N+](=O)[O-]
97 to 98 | Cc1noc(-c2ccc(Br)cc2)n1
42.5 | O=CC=CC=Cc1ccccc1
156 to 158 | COc1ccc(Cl)c(OC)c1C(N)=O
169 | O=C(O)c1cccc(Br)c1F
248 to 250 | O=C(O)c1cccc(C(=O)O)n1
70.5 | CCCCCCCCCCCCCCCCCCOCC(O)CO (configuration not stated)
137 | Cc1ccncc1/C=C/C(=O)O
169 to 171 | CSc1scnc1S(=O)(=O)c1ccc(C)cc1
195 | Cc1cc2c(s1)=Nc1ccccc1NC=2N1CCN(C)CC1
-6.5 | Br/C=C/Br
138 to 142 | CSC(=CC(=C(C#N)C#N)c1ccc(Br)cc1)SC
86 to 87 | N#Cc1ccc(CN2CCOCC2)cc1
151 to 153 | Cc1n[nH]c(SCc2ccc(Cl)cc2)n1
55 | CC(C)(C)C(CO)CO
124 | NC(=O)c1cccc(C(F)(F)F)c1
132 | COc1cc(CCn2cccc2C(=O)O)cc(OC)c1OC
255 to 257 | COc1ccc(C=NN=C2NC(=O)C(=Cc3ccccc3)S2)cc1
238 | N#C/C(=N/Nc1cccc(C(F)(F)F)c1)c1nc2ccccc2c(=O)[nH]1
192 | O=C(O)/C(=C\c1ccccc1)c1ccccc1[N+](=O)[O-]
156 | COc1ccc(C(=O)c2noc(-c3ccc(C)cc3)c2S(=O)(=O)c2ccccc2)cc1

The remaining lines, values behind:

SMILES | melting point [°C]
CCCCCCCCCCCCCCCCCCS(=O)(=O)Cl | 58
CCOC(=O)c1cc2ccccc2oc1=O | 94
Cc1cc(C)n2cnnc2n1 | 165 to 167
Cc1ccc(Cl)cc1C | -6
COc1ccc(-c2onc(C(=O)c3ccc(C)cc3)c2S(=O)(=O)c2ccccc2)cc1 | 170
O=C(O)CCSSCCC(=O)O | 158
CC12CCC(C(=O)C1)C2(C)C (configuration not stated) | 186
c1ccc(Cc2cccnc2)cc1 | 34
Oc1c(F)ccc(F)c1F | 33.5
O=C=Nc1cccc(Cl)c1 | -4
CCCC(=O)c1ccc(Cl)cc1 | 36 to 39
c1ccc2c(c1)CCc1ccccc1C2 | 72 to 76
Cc1ccccc1P(c1ccccc1)c1ccccc1 | 72
O=C1C(=C2C=Cc3cc(-c4ccccc4)ccc3N2)C(=O)c2ccccc21 | 270 to 271
CC12CCC(/C(=C/N(O)c3ccccc3)C1=O)C2(C)C (configuration not stated) | 106 to 107
Cc1ccc(F)cc1C#N | 43 to 45
C1=CC2c3ccccc3C1C21CC1 | 43
COc1cccc(C=Nc2n[nH]c(N=Cc3cccc(OC)c3O)c2Cc2ccc(Cl)cc2)c1O | 261 to 263
S=C(SN1CCOCC1)N1CCOCC1 | 139
O=C(NCc1ccc(Cl)cc1)c1cc([N+](=O)[O-])cc([N+](=O)[O-])c1 | 200 to 202
CC1CCCCN1CCCOC(=O)c1ccc(Cl)c(Cl)c1 (configuration not stated) | 25
Cc1cc(C(=O)NN)[nH]n1 | 157 to 158
CC1C(=O)C23C4CC5C(C)(C)CCC(=O)C56COC(CC1C2OC(C)(C)O4)C63 (configuration not stated) | 252
CCCc1cc(C)cc(C)c1 | -59
Nc1cccc(-c2ccccc2)c1 | 33
COc1ccc(N)cc1OC | 88
Cn1nc(C(=O)Cl)cc1-c1ccco1 | 60 to 61
CC(C)(C)OC(=O)NCc1ccc(C=O)cc1 | 83 to 84
CC12CCC(C(C(=O)O)C1=O)C2(C)C (configuration not stated) | 128
Cc1cccc2cc3ccccc3c(=O)n12 | 78
